Like-named read-outs stand apart in the source and are kept apart here. Where a SMILES comes first, the peptide text is derived from it. Bridges are numbered along the chain shown (N, C = ends).
Target: T1, alpha subunit of the human FcεRI receptor (Homo sapiens, UniProt P12319)
T1 construct: expressed in transfected cells; host or cells: Chinese hamster ovary (CHO FcεRI+) cells
T1 sequence (P12319 26-257): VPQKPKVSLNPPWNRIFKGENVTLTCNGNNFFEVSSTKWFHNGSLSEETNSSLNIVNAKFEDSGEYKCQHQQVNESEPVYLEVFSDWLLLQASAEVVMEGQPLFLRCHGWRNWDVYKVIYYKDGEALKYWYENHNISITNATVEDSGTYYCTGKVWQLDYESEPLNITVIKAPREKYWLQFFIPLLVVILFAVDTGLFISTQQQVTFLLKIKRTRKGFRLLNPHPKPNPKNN
Assay: cell-based 125I-IgE binding inhibition assay on CHO FcεRI+ cells
Protocol: . The following day the cells were rinsed three times with PBS and then once with F12/DMEM. Peptide stocks were reconstituted in 100 mM Hepes buffered water, pH 7.2, at a concentration of 5 mg/mL. Working concentrations of the peptide were diluted in assay buffer (see below). 75 ul, of a desired concentration of peptide was added to the top row of a separate 96 well microtiter plate and serially diluted 1:3 in 50 uL of the assay buffer (F12/DMEM, 1% BSA, 0.05% NaN3 and […] Hepes pH 7.2). Starting concentrations ranged from 50-500 uM. Next, 50 uL of the diluted peptide was transferred to the 96 microtiter well plate containing a monolayer of CHO FcεRI+ cells. After a 1 hour incubation at room temperature, 50 uL of ^125I-IgE (1.5 nM) was added to each well and incubated for an additional 45-60 minutes at 4° C. followed by 5 washes with 200 uL of assay buffer. Cells were solubilized with 200 uL of 1 N NaOH and transferred to a 96 microtiter tube for counting in a gamma counter to determine counts bound. The data were plotted using KaleidaGraph 3.0 and fitted using 4-parameter fits. IC50 values were determined for each peptide.
Six peptides based on selected clones from library #516 were synthesized and assayed for the ability to inhibit the binding of ^125I-IgE to a Chinese hamster ovary cell line expressing the alpha subunit of the IgE high affinity receptor, FcεRI. The peptides were synthesized as nine residue monomers and oxidized to allow the formation of a disulfide bridge resulting in a cyclic peptide. The size of each peptide was confirmed by mass spectrometry.

[1] = inhibition of labeled IgE-binding to CHO FcεRI+ cells, read-out: Mean IC50(uM) ± S.D.

SMILES	IC50 [1]	other results
CSCC[C@H](NC(=O)[C@@H]1CSSC[C@H](NC(=O)[C@H](CCCNC(=N)N)NC(=O)[C@@H]2CCCN2C(=O)[C@H](CC(C)C)NC(=O)[C@@H](N)CC(N)=O)C(=O)N[C@@H]([C@@H](C)O)C(=O)N[C@@H](CCC(=O)O)C(=O)NCC(=O)N[C@@H](C)C(=O)N[C@@H](Cc2c[nH]c3ccccc23)C(=O)NCC(=O)N[C@@H](Cc2c[nH]c3ccccc23)C(=O)N[C@@H](C(C)C)C(=O)N1)C(=O)O [IGE070, NLPRCTEGAWGWVCM] (H-NLPRCTEGAWGWVCM-OH; disulfide 5-14)	> 500 µM	–
CC(=O)N[C@@H](C)C(=O)N[C@@H](CC(C)C)C(=O)N[C@H]1CSSC[C@@H](C(=O)N[C@@H](Cc2ccc(O)cc2)C(=O)N[C@H](C(N)=O)C(C)C)NC(=O)[C@H](C(C)C)NC(=O)[C@H](CCC(=O)O)NC(=O)[C@@H]2CCCN2C1=O [IGE036, Ac-ALCPEVCYV-nh2] (Ac-ALCPEVCYV-NH2; disulfide 3-7)	–	inhibiting 125I-IgE binding to cell surface expressed FcεRI (in words): not active; IC50 (IgE-inhibition activity of synthetic peptides, read-out: Inhibition activity: C+hd 50 +l (uM) ± s.d.): > 500 µM
CC[C@H](C)[C@H](NC(=O)[C@@H]1CSSC[C@H](N)C(=O)N[C@@H]([C@@H](C)O)C(=O)N[C@@H](CCC(=O)O)C(=O)NCC(=O)N2CCC[C@H]2C(=O)N[C@@H](Cc2c[nH]c3ccccc23)C(=O)NCC(=O)N[C@@H](Cc2c[nH]c3ccccc23)C(=O)N[C@@H](C(C)C)C(=O)N1)C(N)=O [IGE055, CTEGPWGWVCI-nh2] (H-CTEGPWGWVCI-NH2; disulfide 1-10)	> 500 µM	–
CSCC[C@H](NC(=O)[C@@H]1CSSC[C@H](NC(=O)[C@H](CCCNC(=N)N)NC(=O)[C@@H]2CCCN2C(=O)[C@H](CC(C)C)NC(=O)[C@@H](N)CC(N)=O)C(=O)N[C@@H]([C@@H](C)O)C(=O)N[C@@H](CCC(=O)O)C(=O)NCC(=O)N2CCC[C@H]2C(=O)N[C@@H](Cc2c[nH]c3ccccc23)C(=O)NCC(=O)N[C@@H](Cc2c[nH]c3ccccc23)C(=O)N[C@@H](C(C)C)C(=O)N1)C(=O)N[C@@H](C)C(=O)N[C@@H](C)C(=O)N[C@@H](CC(=O)O)C(=O)O [NLPRCTEGPWGWVCMAAD] (H-NLPRCTEGPWGWVCMAAD-OH; disulfide 5-14; N-terminus and C-terminus assumed)	–	fold improvement over the EIQECTEGPWGWFCVGSG peptide: 40 fold; fold improvement over the MGTLCLEGPEGWFCIESA peptide: greater than 160 fold

The next lines start with results.

IC50 [1]	SMILES	other results
1.8 ± 1.3 µM	CSCC[C@H](NC(=O)[C@@H]1CSSC[C@H](NC(=O)[C@H](CCCNC(=N)N)NC(=O)[C@@H]2CCCN2C(=O)[C@H](CC(C)C)NC(=O)[C@H](CC(N)=O)NC(C)=O)C(=O)N[C@@H]([C@@H](C)O)C(=O)N[C@@H](CCC(=O)O)C(=O)NCC(=O)N2CCC[C@H]2C(=O)N[C@@H](Cc2c[nH]c3ccccc23)C(=O)NCC(=O)N[C@@H](Cc2c[nH]c3ccccc23)C(=O)N[C@@H](C(C)C)C(=O)N1)C(N)=O [IGE058, Ac-NLPRCTEGPWGWVCM-nh2] (Ac-NLPRCTEGPWGWVCM-NH2; disulfide 5-14)	–
1.4 ± 1.1 µM	CC[C@H](C)[C@H](NC(=O)[C@@H]1CSSC[C@H](NC(=O)[C@H](CCCNC(=N)N)NC(=O)[C@@H]2CCCN2C(=O)[C@H](CC(C)C)NC(=O)[C@@H](N)CC(N)=O)C(=O)N[C@@H]([C@@H](C)O)C(=O)N[C@@H](CCC(=O)O)C(=O)NCC(=O)N2CCC[C@H]2C(=O)N[C@@H](Cc2c[nH]c3ccccc23)C(=O)NCC(=O)N[C@@H](Cc2c[nH]c3ccccc23)C(=O)N[C@@H](C(C)C)C(=O)N1)C(=O)O [IGE075, NLPRCTEGPWGWVCI] (H-NLPRCTEGPWGWVCI-OH; disulfide 5-14; N-terminus and C-terminus assumed)	–
1.4 ± 1 µM	CSCC[C@H](NC(=O)[C@@H]1CSSC[C@H](NC(=O)[C@H](CCCNC(=N)N)NC(=O)[C@@H]2CCCN2C(=O)[C@H](CC(C)C)NC(=O)[C@@H](N)CC(N)=O)C(=O)N[C@@H]([C@@H](C)O)C(=O)N[C@@H](CCC(=O)O)C(=O)NCC(=O)N2CCC[C@H]2C(=O)N[C@@H](Cc2c[nH]c3ccccc23)C(=O)NCC(=O)N[C@@H](Cc2c[nH]c3ccccc23)C(=O)N[C@@H](C(C)C)C(=O)N1)C(=O)N[C@@H](C)C(=O)N[C@@H](C)C(=O)N[C@@H](CC(=O)O)C(N)=O [IGE043, NLPRCTEGPWGWVCMAAD-nh2] (H-NLPRCTEGPWGWVCMAAD-NH2; disulfide 5-14)	–

Source: patent publication US20040086942A1, “Ige receptor antagonists” (priority 2003, published 2004)
